# Laboratory results from US20230312587A1, “PTERIDINONE COMPOUNDS AND USES THEREOF” (Vertex Pharmaceutical Incorporated, priority 2018, published 2023).
# System: β-catenin-TCF-mediated reporter transcription activity in Colo 205 cells
# Experiment: Colo 205 reporter assay (TCF/LEF luciferase)
# Assay type: cell-based
# Settings: Colo 205 TCF/LEF luciferase reporter, five hours after addition of compound; read-out: TCF reporter Colo205 IC50
# How it was run: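 Luciferase signal from a TCF/LEF-driven reporter, stably integrated in Colo 205 colon cancer cells, was measured 5 h after compound addition.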
row,IC50 [nM],SMILES
1,300 to 1000,"COCC1(C)C(=O)Nc2c(C)nc(NCc3cnn(Cc4ccc(C(F)(F)F)nc4)c3)nc2N1C (stereo not shown) [Compound 707, 7-(methoxymethyl)-4,7,8-trimethyl-2-(((1-((6-(trifluoromethyl)pyridin-3-yl)methyl)-1H-pyrazol-4-yl)methyl)amino)-7,8-dihydropteridin-6(5H)-one]"
2,300 to 1000,"COCC1(C)C(=O)Nc2c(C)nc(NCc3cnn(Cc4cc(C(F)(F)F)nn4C)c3)nc2N1C (stereo not shown) [Compound 709, 7-(methoxymethyl)-4,7,8-trimethyl-2-(((1-((1-methyl-3-(trifluoromethyl)-1H-pyrazol-5-yl)methyl)-1H-pyrazol-4-yl)methyl)amino)-7,8-dihydropteridin-6(5H)-one]"
3,1000 to 5000,"COCC1(C)C(=O)Nc2c(C)nc(NC3CN(C(=O)c4cc(F)c(F)c(F)c4)C3)nc2N1C (stereo not shown) [Compound 722, 7-(methoxymethyl)-4,7,8-trimethyl-2-((1-(3,4,5-trifluorobenzoyl)azetidin-3-yl)amino)-7,8-dihydropteridin-6(5H)-one]"

# Same assay, conditions: Homo sapiens, COLO 205, 5 h, Colo 205 TCF/LEF luciferase reporter, five hours after addition of compound; read-out: TCF reporter Colo205 IC50
row,SMILES,IC50 [nM]
1,"CO[C@H](C)[C@H]1C(=O)Nc2c(C)nc(N[C@H]3C[C@@H](Cn4ccc(C(F)(F)F)n4)C3)nc2N1C [Compound 691, (S)-7-((R)-1-methoxyethyl)-4,8-dimethyl-2-((cis-3-((3-(trifluoromethyl)-1H-pyrazol-1-yl)methyl)cyclobutyl)amino)-7,8-dihydropteridin-6(5H)-one]",< 300
2,"CC[C@H]1C(=O)Nc2c(C)nc(N[C@H]3C[C@@H](Cn4ccc(C(F)(F)F)n4)C3)nc2N1C [Compound 692, (S)-7-ethyl-4,8-dimethyl-2-((cis-3-((3-(trifluoromethyl)-1H-pyrazol-1-yl)methyl)cyclobutyl)amino)-7,8-dihydropteridin-6(5H)-one]",300 to 1000
3,"Cc1nc(N[C@H]2C[C@@H](COc3ccnn3C)C2)nc2c1NC(=O)[C@H](C(C)C)N2C [Compound 693, (S)-7-isopropyl-4,8-dimethyl-2-((cis-3-(((1-methyl-1H-pyrazol-5-yl)oxy)methyl)cyclobutyl)amino)-7,8-dihydropteridin-6(5H)-one]",≥ 5000
4,"Cc1nc(N[C@H]2C[C@@H](COc3cnc(C#N)c(F)c3)C2)nc2c1NC(=O)[C@H](C(C)C)N2C [Compound 694, 3-fluoro-5-((cis-3-(((S)-7-isopropyl-4,8-dimethyl-6-oxo-5,6,7,8-tetrahydropteridin-2-yl)amino)cyclobutyl)methoxy)picolinonitrile]",< 300
5,"Cc1nc(N[C@H]2C[C@@H](Cn3nc(Cl)c(C#N)n3)C2)nc2c1NC(=O)[C@H](C(C)C)N2C [Compound 695, 5-chloro-2-((cis-3-(((S)-7-isopropyl-4,8-dimethyl-6-oxo-5,6,7,8-tetrahydropteridin-2-yl)amino)cyclobutyl)methyl)-2H-1,2,3-triazole-4-carbonitrile]",< 300
6,"CC(=O)c1ccc(OC[C@H]2C[C@@H](Nc3nc(C)c4c(n3)N(C)[C@@H](C(C)C)C(=O)N4)C2)cn1 [Compound 696, (S)-2-((cis-3-(((6-acetylpyridin-3-yl)oxy)methyl)cyclobutyl)amino)-7-isopropyl-4,8-dimethyl-7,8-dihydropteridin-6(5H)-one]",300 to 1000
7,"Cc1nc(N[C@H]2C[C@@H](Cn3ccc(C(F)(F)F)n3)C2)nc2c1NC(=O)[C@H](C)N2C [Compound 698, (S)-4,7,8-trimethyl-2-((cis-3-((3-(trifluoromethyl)-1H-pyrazol-1-yl)methyl)cyclobutyl)amino)-7,8-dihydropteridin-6(5H)-one]",300 to 1000
8,"Cc1nc(NC2CN(C(=O)C34CC(C(F)(F)F)(C3)C4)C2)nc2c1NC(=O)[C@H](C(C)C)N2C [Compound 699, (S)-7-isopropyl-4,8-dimethyl-2-((1-(3-(trifluoromethyl)bicyclo[1.1.1]pentane-1-carbonyl)azetidin-3-yl)amino)-7,8-dihydropteridin-6(5H)-one]",1000 to 5000
9,"COCC1(C)C(=O)Nc2c(C)nc(NCc3cnn(Cc4ccc(C(F)(F)F)nc4)c3)nc2N1C (stereo not shown) [Compound 703, 7-(methoxymethyl)-4,7,8-trimethyl-2-(((1-((6-(trifluoromethyl)pyridin-3-yl)methyl)-1H-pyrazol-4-yl)methyl)amino)-7,8-dihydropteridin-6(5H)-one]",300 to 1000
10,"COCC1(C)C(=O)Nc2c(C)nc(NCc3cnn(Cc4cc(C(F)(F)F)nn4C)c3)nc2N1C (stereo not shown) [Compound 704, 7-(methoxymethyl)-4,7,8-trimethyl-2-(((1-((1-methyl-3-(trifluoromethyl)-1H-pyrazol-5-yl)methyl)-1H-pyrazol-4-yl)methyl)amino)-7,8-dihydropteridin-6(5H)-one]",< 300
11,"CO[C@H](C)[C@H]1C(=O)Nc2c(C)nc(N[C@H]3C[C@@H](CNc4cnc(C(F)(F)F)cn4)C3)nc2N1C [Compound 712, (S)-7-((R)—1-methoxyethyl)-4,8-dimethyl-2-((cis-3-(((5-(trifluoromethyl)pyrazin-2-yl)amino)methyl)cyclobutyl)amino)-7,8-dihydropteridin-6(5H)-one]",< 300
12,"CC[C@H]1C(=O)Nc2c(C)nc(N[C@H]3C[C@@H](CNc4cnc(C(F)(F)F)cn4)C3)nc2N1C [Compound 713, (S)-7-ethyl-4,8-dimethyl-2-((cis-3-(((5-(trifluoromethyl)pyrazin-2-yl)amino)methyl)cyclobutyl)amino)-7,8-dihydropteridin-6(5H)-one]",< 300
13,"Cc1nc(N[C@H]2C[C@@H](CNc3cnc(C(F)(F)F)cn3)C2)nc2c1NC(=O)[C@H](C)N2C [Compound 714, (S)-4,7,8-trimethyl-2-((cis-3-(((5-(trifluoromethyl)pyrazin-2-yl)amino)methyl)cyclobutyl)amino)-7,8-dihydropteridin-6(5H)-one]",< 300
14,"Cc1nc(N[C@H]2C[C@@H](Nc3ncc(C#N)cc3F)C2)nc2c1NC(=O)[C@H](C(C)C)N2C [Compound 715, 5-fluoro-6-((cis-3-(((S)-7-isopropyl-4,8-dimethyl-6-oxo-5,6,7,8-tetrahydropteridin-2-yl)amino)cyclobutyl)amino)nicotinonitrile]",1000 to 5000
15,"COCC1(C)C(=O)Nc2c(C)nc(NC3CN(C(=O)c4cc(F)c(F)c(F)c4)C3)nc2N1C (stereo not shown) [Compound 721, 7-(methoxymethyl)-4,7,8-trimethyl-2-((1-(3,4,5-trifluorobenzoyl)azetidin-3-yl)amino)-7,8-dihydropteridin-6(5H)-one]",1000 to 5000
16,"Cc1nc(N[C@H]2C[C@H](Oc3ccc(C(F)(F)F)nc3)C2)nc2c1NC(=O)[C@H](COC(C)(C)C)N2C [Compound 725, (S)-7-(tert-butoxymethyl)-4,8-dimethyl-2-((trans-3-((6-(trifluoromethyl)pyridin-3-yl)oxy)cyclobutyl)amino)-7,8-dihydropteridin-6(5H)-one]",< 300

# Results, then the compound that gave them:
row,IC50 [nM],SMILES
1,1000 to 5000,"Cc1nc(NCc2cnn(Cc3ccc(C(F)(F)F)nc3)c2)nc2c1NC(=O)[C@H](C(C)(C)O)N2C [Compound 726, (S)-7-(2-hydroxypropan-2-yl)-4,8-dimethyl-2-(((1-((6-(trifluoromethyl)pyridin-3-yl)methyl)-1H-pyrazol-4-yl)methyl)amino)-7,8-dihydropteridin-6(5H)-one]"
2,< 300,"Cc1nc(NCc2cnn(CC3CC(F)(F)C3)c2)nc2c1NC(=O)[C@H](C(C)C)N2C [Compound 727, (S)-2-(((1-((3,3-difluorocyclobutyl)methyl)-1H-pyrazol-4-yl)methyl)amino)-7-isopropyl-4,8-dimethyl-7,8-dihydropteridin-6(5H)-one]"
3,< 300,"CO[C@H](C)[C@H]1C(=O)Nc2c(C)nc(NCc3cnn(CC4CC(F)(F)C4)c3)nc2N1C [Compound 728, (S)-2-(((1-((3,3-difluorocyclobutyl)methyl)-1H-pyrazol-4-yl)methyl)amino)-7-((R)-1-methoxyethyl)-4,8-dimethyl-7,8-dihydropteridin-6(5H)-one]"
4,< 300,"Cc1nc(NCc2cnn(Cc3cc(F)c(F)c(F)c3)c2)nc2c1NC(=O)[C@H](C(C)(C)O)N2C [Compound 729, (S)-7-(2-hydroxypropan-2-yl)-4,8-dimethyl-2-(((1-(3,4,5-trifluorobenzyl)-1H-pyrazol-4-yl)methyl)amino)-7,8-dihydropteridin-6(5H)-one]"
5,1000 to 5000,"Cc1nc(N[C@H]2C[C@H](n3ccc(C(F)(F)F)n3)C2)nc2c1NC(=O)[C@H](C(C)C)N2C [Compound 730, (S)-7-isopropyl-4,8-dimethyl-2-((trans-3-(3-(trifluoromethyl)-1H-pyrazol-1-yl)cyclobutyl)amino)-7,8-dihydropteridin-6(5H)-one]"
6,≥ 5000,"CO[C@H](C)[C@H]1C(=O)Nc2c(C)nc(N[C@H]3C[C@H](n4ccc(C(F)(F)F)n4)C3)nc2N1C [Compound 731, (S)-7-((R)-1-methoxyethyl)-4,8-dimethyl-2-((trans-3-(3-(trifluoromethyl)-1H-pyrazol-1-yl)cyclobutyl)amino)-7,8-dihydropteridin-6(5H)-one]"
7,1000 to 5000,"Cc1nc(N[C@H]2C[C@@H](Nc3ccc(F)cn3)C2)nc2c1NC(=O)[C@H](C(C)C)N2C [Compound 732, (S)-2-((cis-3-((5-fluoropyridin-2-yl)amino)cyclobutyl)amino)-7-isopropyl-4,8-dimethyl-7,8-dihydropteridin-6(5H)-one]"
8,≥ 5000,"COc1ccc(N[C@H]2C[C@@H](Nc3nc(C)c4c(n3)N(C)[C@@H](C(C)C)C(=O)N4)C2)nc1 [Compound 733, (S)-7-isopropyl-2-((cis-3-((5-methoxypyridin-2-yl)amino)cyclobutyl)amino)-4,8-dimethyl-7,8-dihydropteridin-6(5H)-one]"
9,300 to 1000,"Cc1nc(N[C@H]2C[C@@H](Nc3ncc(C(F)(F)F)cn3)C2)nc2c1NC(=O)[C@H](C(C)C)N2C [Compound 734, (S)-7-isopropyl-4,8-dimethyl-2-((cis-3-((5-(trifluoromethyl)pyrimidin-2-yl)amino)cyclobutyl)amino)-7,8-dihydropteridin-6(5H)-one]"
